The values that follow are results of earlier work, collected in patent publication US10058529B2, “Nutraceutical composition for PDE4 inhibition, enhanced dopamine metabolism and long term potentiation” (priority 2013, dated 2018).

One data set concerns acetylcholine. The settings on record: in vivo.
Data set [1] deals with phosphodiesterase enzymes (PDE 1 through 5).
For data set [2] the following is noted: co-administered piperine.
For a further data set, the system named is PDE4. The settings on record: reference 38.
The conditions of data set [3]: low doses.

With `CC(=O)O[C@H](CC(=O)[O-])C[N+](C)(C)C` [Acetyl-L-carnitine, acetyl-L-carnitine], the “levels of acetylcholine in the brain” value in the data set with acetylcholine was “increase”. Take `O=c1cc(-c2ccc(O)c(O)c2)oc2cc(O)cc(O)c12` [Luteolin, luteolin]: in data set [1], the “inhibition of phosphodiesterase enzymes (PDE 1 through 5)” value is reported as “can inhibit”. As to `O=C(/C=C/C=C/c1ccc2c(c1)OCO2)N1CCCCC1` [Piperine, piperine], the bioavailability of resveratrol result in data set [2] is recorded as “enhance the bioavailability”. On to `COc1ccc([C@@]23C=CC(=O)C[C@@H]2N(C)CC3)cc1OC` [mesembrenone], for which, in the data set with PDE4, the PDE4 inhibition entry is listed as “significantly inhibit”.

In the case of `COc1ccc(C2CNC(=O)C2)cc1OC1CCCC1` (centres unmarked) [rolipram], in data set [3], the side effect entry is “emesis (vomiting) at low doses”.
